Measured values reported in patent publication US20250009716A1, “NOVEL INHIBITORS OF CLAUDIN-1 FOR THERAPEUTIC INTERVENTIONS” (BOARD OF REGENTS OF THE UNIVERSITY OF NEBRASKA, priority 2021, published 2025).
“Also recorded” adds a separate entry of the source.

Columns and labels:
[1] = target: T1, claudin-1/Src complex in SW480claudin-1 cells (Homo sapiens, UniProt O95832); assay: Claudin-1/Src association (proximity ligation assay, Co-IP); format: cell-based; settings: PLA, Co-IP or immuno-precipitation
T1 construct: claudin-1 was expressed in a non-metastatic CRC cell line, SW480 cells; expressed in transfected cells; host or cells: SW480 colorectal cancer cells expressing claudin-1 (SW480claudin-1)
T1 sequence (O95832 1-211): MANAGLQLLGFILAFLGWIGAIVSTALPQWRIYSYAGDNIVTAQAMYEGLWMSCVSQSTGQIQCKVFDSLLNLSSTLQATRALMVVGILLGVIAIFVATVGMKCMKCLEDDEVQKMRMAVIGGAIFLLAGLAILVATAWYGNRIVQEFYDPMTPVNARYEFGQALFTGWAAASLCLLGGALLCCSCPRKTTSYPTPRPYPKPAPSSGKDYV
Description: The CSC cells contribute to the generation of metastasis (16-19), and key CSC characteristics are highly relevant to metastasis, including invasive motility, and, resistance to apoptosis (20,21). […] Considering that chemoresistance is central to the CRC progression and metastasis, we further tested if adjuvant use of 16 with 5FU can have significant bearing upon these traits. Colon cancer cells were subjected to exogenous administration of 16 alone, or in combination with the 5-FU, the conventional anti-CRC drug. […] To further determine the mechanistic details the effect of 16 on association of claudin-1 and Src, SW480claudin-1 cells were treated with 16 or the vehicle and resultant cell lysate was subjected to Proximity ligation assay (PLA) or Co—IP.

[2] = system: SW480claudin-1 cells xenograft tumors; assay: SW480claudin-1 xenograft tumor growth; format: in vivo
Procedure: (A) In-silico 3D-structure of claudin-1, cavities that can be targeted by small molecules were defined using Molegro Virtual Docker. (B) Cell survival assay showing effects of three different inhibitors (I1, I2 and 16). […] (C) Effect of 16 treatment (72 hours) upon resistance to anoikis in claudin-1 overexpressing SW480 cells and claudin-1 deficient HCT116 cells. (D) Effect of 16 treatment on cell invasion in SW480claudin-1 cells. (E) Effect of inhibitor 16 on xenograft tumors. […] Effect on tumor growth was monitored.
Tumor volume and weight were measured.
In vivo validation of the anti-tumorigenic and metastatic effects of 1-6 treatment: (i) Xenograft model. […] These studies are elaborated using claudin-1 positive (HT29, DLD-1, SW620 cells) and negative (HCT116, SW620ShRNA) for similar xenograft tumor growth studies (15,50). Luciferin expressing cells (established in our lab) are used to help examining longitudinal growth of these tumors using live mouse imaging.

[3] = system: p-Src and c-PARP in SW480claudin-1 overexpressing cells; assay: Expression of p-Src, Src and c-PARP; format: cell-based
Description: (§1) To this end, a library of molecules was synthesized in order to develop an initial SAR evaluation. The first compounds tested eliminated the acylated (thio) urea as well as the napthyl group and evaluated just the urea/phenyl compounds (Compounds 1-6). The methoxy group of the naphthalene ring system was needed when the benzimidazole group was present (16 vs. Compound 8). […] The result of metabolic stability was expressed as the percentage of drug remaining at each time. […] To further determine the effect of PDS-0330 on p-Src expression and association, cells were treated with Compound 1, 16 and PDS-0330. Expression and association with p-Src was unaffected with Compound 1 (negative control). The specificity of PDS-0330 for CLDN1 was further confirmed by treating SW480^CLDN1, HCT116^CLDN2 (overexpressing another tight junction protein) or normal IEC-6 cells with PDS-0330 (FIG. 12).
(§2) Furthermore, DLD-1 chemoresistant cells were treated with PDS-0330 and I-6. […] Based on the in vitro activity and metabolic stability, PDS-0330, and any potential new analogs will be evaluated in animal models to determine the pharmacokinetic properties and biodistribution as described in preliminary data.

[4] = system: SW480claudin-1 cells; assay: Cell invasion assay; format: cell-based
Description: (§3) The crystal structure of claudin-1 is unknown. Therefore, an in-silico protein folding program, YASARA, was used to identify an effective claudin-1 inhibitor. The resultant 3D-structure was then modeled using Molegro Virtual Docker (MVD) software program. These in-silico analyses identified putative cavities in the claudin-1 protein that can be targeted by small molecule inhibitors. Next, a 100K library of small molecules was screened in silico using the MVD. The top 10 inhibitors that bound to the Site #3 (targeting near c-terminal domain; the most accessible pocket; FIG. 2A) with the best binding energies were selected as hits and used for further testing. Screening of these inhibitors named Inihibitor-1 (1-1) to Inhibitor-10 (I-10) was done using SW480claudin-1, SW620 and control cells. Claudin-1 deficient HCT116 cells (WT-APC) or SW620shRNAcld-1 were used as negative controls. Resistance to anoikis and cell invasion was used as biological end-points in testing these inhibitors. […] 16 has the following structure:
To this end, a library of molecules was synthesized in order to develop an initial SAR evaluation. The first compounds tested eliminated the acylated (thio) urea as well as the napthyl group and evaluated just the urea/phenyl compounds (Compounds 1-6). […] The result of metabolic stability was expressed as the percentage of drug remaining at each time. […]

[5] = Cell survival assay of three inhibitors (FIG. 2B); format: cell-based
Procedure: (A) In-silico 3D-structure of claudin-1, cavities that can be targeted by small molecules were defined using Molegro Virtual Docker. (B) Cell survival assay showing effects of three different inhibitors (I1, I2 and 16). […] (C) Effect of 16 treatment (72 hours) upon resistance to anoikis in claudin-1 overexpressing SW480 cells and claudin-1 deficient HCT116 cells. (D) Effect of 16 treatment on cell invasion in SW480claudin-1 cells. (E) Effect of inhibitor 16 on xenograft tumors. Tumors were induced for two weeks after which 16 was injected i.p (10 mg/kg). Effect on tumor growth was monitored.

[6] = system: DLD-1 chemoresistant cells; assay: p-Src and c-PARP expression in 5FU resistant cells; format: cell-based
Procedure: as §2

[7] = system: SW480claudin-1 cells; assay: Resistance to anoikis in claudin-1 overexpressing cells; format: cell-based; settings: for effect on resistance to anoikis: 72 h treatment; for activity: FIG. 9, printed only as 'activity', kind of value not named
Description: as §3, §1

[8] = system: p-Src and p-EphA2 in SW480claudin-1 cells; assay: Phosphorylation of Src and EphA2 versus dasatinib; format: cell-based
Procedure: Effects on (A) phosphorylation of Src and EphA2 and (B) cell survival (MTT assay) were determined.

Structure (SMILES)	claudin-1/Src (p-Src) association [1]	growth of xenograft tumors ([2]; 16 i.p. 10 mg/kg)	toxic effects on xenograft mice ([2]; 16 i.p. 10 mg/kg)	apoptosis (c-PARP) [3]	p-Src expression [3]	effect on cell invasion [4]	effect on cell survival, compared among I1, I2 and 16 [5]	apoptosis (c-PARP) [6]	p-Src expression [6]	effect on resistance to anoikis [7]	activity [7]	p-EphA2 and p-Src expression [8]	xenograft tumor growth ([2]; PDS-0330 ip, 2.5, 5 mg/kg)	activity improvement of PDS-0330 over 16 ([7]; 8.4 μM vs. 28.4 μM)
COc1cc2ccccc2cc1C(=O)NC(=S)Nc1ccc(-c2nc3ccccc3[nH]2)cc1 [Compound 16]	markedly suppressed; also recorded: reduced	significantly inhibited	did not observe any toxic effects	increased apoptosis (c-PARP)	reduced p-Src expression	most effective	most effective	increase in apoptosis (c-PARP)	decrease in p-Src expression	most effective	28.4 µM			
O=C(NC(=S)Nc1ccc(-c2nc3ccccc3o2)cc1)c1ccc2ccccc2c1 [PDS-0330]	most potent effects; also recorded: inhibits Src association			most potent effects	most potent effects	significantly inhibited		increase in apoptosis (c-PARP)	decrease in p-Src expression	most potent compound; also recorded: significantly inhibited	8.4 µM	inhibited p-EphA2 expression along with p-Src; also recorded: more effective in inhibiting cell survival and p-EphA2 expression	decrease in xenograft tumor growth	~3 fold
